Literature values, collected in patent publication US8038645B2 (Bayer Technology Services GmbH, priority 2005, dated 2011).
Where two headings read alike, the source gives them in different places.

Key:
[1] = input parameter for PK-Sim
[2] = input parameter for PK-Sim; remark: listed apart in the source

CC(C)c1cccc(C(C)C)c1O [propofol]
Blood clearance in ml/min: mean (std. dev.) (Ickz et al., adults, mean age 45.2 years, 21 mg/kg/h for 5 min, then 12 mg/kg/h for 10 min, then 6 mg/kg/h): 33.8 (7.8) ml/min | Blood clearance in ml/min: mean (std. dev.) (Kanto et al., pregnant women, mean age 27.1 years, 2.5 mg/kg bolus over 0.17 min): 27.5 (5.5) ml/min | Blood clearance in ml/min: mean (std. dev.) (Mertens et al., young men, mean age 24 years, 1 mg/kg bolus over 1 min, then 3 mg/kg/h): 31.2 (2.8) ml/min | Blood clearance in ml/min: mean (std. dev.) (Raoof et al., children, mean age 1.9 years, 3 mg/kg iv): 38.7 (6.8) ml/min | Blood clearance in ml/min: mean (std. dev.) (Saint-Maurice et al., children, mean age 5.5 years, 2.5 mg/kg bolus over 0.33 min): 30.6 (2.9) ml/min | Blood clearance in ml/min: mean (std. dev.) (Valtonen et al., children, mean age 6.5 years, 2.5 mg/kg bolus over 0.5 min): 32.0 (16.8) ml/min | Clearance (age-dependent) (input parameter for PK-Sim): 29 to 50 mL/min/kg | Free plasma fraction (age-dependent) [1]: 0.020-0.025 | Lipophilicity [2]: 2.6
